Experimental data published in patent US7964559B2, “MVL, an antiviral protein from a cyanobacterium” (The United States of America, as represented by the …, priority 2004, dated 2011).
Entries after “also recorded” stand apart in the source; their conditions may differ. Where two headings read alike, the source gives them in different places.

How the values were obtained:
MVL [1] = target: T1, MVL (Microcystis viridis, UniProt Q9RHG4); assay type: binding; details: for Binding to MVL: Table 1, MVL binding studies
MVL [2] = target: T1, MVL; assay type: binding; details: for Stoichiometry: carbohydrates per MVL monomer, 10 mM Tris pH 6.5; for ΔG: ΔG = −RT · lnKA, T = 298 K
MVL [3] = target: T1, MVL; assay type: cell-based
[4] = test system: M-tropic virus SF162 and a T-tropic virus (LAV); experiment: Single round HIV-infectivity assay; assay type: cell-based; details: read-out: approximate IC50, HIV infectivity
[5] = test system: HIV-1 T-cell tropic (T-tropic) strain LAV; details: read-out: IC50, inhibition of Env-mediated fusion
[6] = test system: HIV-1 macrophage tropic (M-tropic) strain SF162; details: read-out: IC50, inhibition of Env-mediated fusion
[7] = excess carbohydrate, pH 6.85, 27° C.

In the case of `CC(=O)N[C@H]1[C@H](O[C@H]2[C@H](O)[C@@H](NC(C)=O)C(O)O[C@@H]2CO)O[C@H](CO)[C@@H](O)[C@@H]1O` (stereo partly shown) [GlcNAcβ(1→4) GlcNAc, GlcNAcβ(1→4)GlcNAc], the “binding to MVL / change of 1H-15N correlation spectra of MVL” value (from here on “binding to MVL / change”) (MVL [1]; [7]) is reported as “nor do they bind” and the “binding to MVL / change” value (MVL [1]; excess carbohydrate, pH 6.85, 27° C., listed as GlcNAc2) is reported as “identical to that of free MVL”.

For `CC(=O)N[C@H]1C(O)O[C@H](CO)[C@@H](O[C@@H]2O[C@H](CO)[C@@H](O)[C@H](O)[C@@H]2O)[C@@H]1O` (stereo partly shown) [Manβ(1→4)GlcNAc], the “binding to MVL / change” value (MVL [1]; pH 6.85) was “nor do they bind”.

In the case of `CC(=O)N[C@H]1[C@H](O[C@H]2[C@H](O)[C@@H](NC(C)=O)C(O)O[C@@H]2CO)O[C@H](CO)[C@@H](O[C@@H]2O[C@H](CO[C@H]3O[C@H](CO)[C@@H](O)[C@H](O)[C@@H]3O)[C@@H](O)[C@H](O)[C@@H]2O)[C@@H]1O` (stereo partly shown) [oligomannose-2A, Manα(1→6)Manβ(1→4)GlcNAcβ(1→4)GlcNAc], the ΔH (MVL [2]; 25° C., pH 6.5) is reported as -10.5 ± 0.04 kcal/mol, the Stoichiometry (MVL [2]; one site model, 25° C., listed as Man2A) is reported as 2.04 ± 0.05 and the Stoichiometry (MVL [2]; one site model, 25° C., listed as Man2GlcNAc2) is reported as “two”. The ΔG (MVL [2]) was -7.4 ± 0.6 kcal/mol, the “Binding to MVL” value (MVL [1]) was 3 and the “binding to MVL / change” value (MVL [1]; [7]) was “binds with high affinity”.

In the case of `CC(=O)N[C@H]1[C@H](O[C@H]2[C@H](O)[C@@H](NC(C)=O)C(O)O[C@@H]2CO)O[C@H](CO)[C@@H](O[C@@H]2O[C@H](CO[C@H]3O[C@H](CO[C@H]4O[C@H](CO)[C@@H](O)[C@H](O)[C@@H]4O)[C@@H](O)[C@H](O[C@H]4O[C@H](CO)[C@@H](O)[C@H](O)[C@@H]4O)[C@@H]3O)[C@@H](O)[C@H](O[C@H]3O[C@H](CO)[C@@H](O)[C@H](O)[C@@H]3O)[C@@H]2O)[C@@H]1O` (stereo partly shown) [oligomannose-5, Man5GlcNAc2], the “Binding to MVL” value (MVL [1]) is reported as 3.

Man6GlcNAc2 [oligomannose-6] was tested, and the ΔH (MVL [2]; 25° C., pH 6.5) was -20.8 ± 0.1 kcal/mol, the Stoichiometry (MVL [2]; one site model, 25° C., listed as Man6) was 2.06 ± 0.01 and the Stoichiometry (MVL [2]; one site model, 25° C., listed as Man6GlcNAc2) was “two”. The Ka (MVL [2]; equilibrium association constant, one site model, 25° C., pH 6.5) was 4.5 (±0.3)×10^6 M^−1, the ΔG (MVL [2]) was -9.0 ± 0.6 kcal/mol and the “lifetime of the MVL:carbohydrate complex” value (MVL [1]; (2πΔδ)^−1 from chemical shift differences) was over 16 ms. The “Binding to MVL” value (MVL [1]) was 3 and the “binding to MVL / change” value (MVL [1]; [7]) was “dramatic changes”.

For Man9GlcNAc2 [oligomannose-9], the “effect of pretreatment of MVL on inhibition of fusion by MVL” value (MVL [3]; MVL 200 nM, 5-fold excess of carbohydrate) was “partially reduced inhibition” and the “Binding to MVL” value (MVL [1]) was 3.

For “Manα (1→3)[Manα(1→6)]Manβ [Manα(1→3)[Manα(1→6)]Man]”, the “effect of pretreatment of MVL on inhibition of fusion by MVL” value (MVL [3]) was “no effect” and the “binding to MVL / change” value (MVL [1]; pH 6.85) was “identical to that of free MVL; also recorded: nor do they bind”.

B1: MVL: 113 amino acid, 13 kDa carbohydrate binding protein (lectin) from Microcystis viridis NIES-102, SEQ ID NO: 3 (protein, listed as Microcystis viridis)
chain: ASYKVNIPAGPLWSNAEAQQVGPKIAAAHQGNFTGQWTTVVESAMSVVEVELQVENTGIHEFKTDVLAGPLWSNDEAQKLGPQIAASYGAEFTGQWRTIVEGVMSVIQIKYTF
B1 was tested, and the IC50 [4] was 30 to 50 nM, the IC50 [5] was 30 ± 4 nM and the IC50 [6] was 37 ± 6 nM.
